Assay results reported in patent US9944602B2, “Piperidinone herbicides” (E. I. DU PONT DE NEMOURS AND COMPANY, priority 2014, dated 2018).

Columns and labels:
Format in all cases: in vivo
[1] = system: galium (catchweed bedstraw, Galium aparine); experiment: Test A postemergence galium; conditions: 0 to 100 scale, 0 is no effect, 100 is complete control
Procedure, shortened: (§1)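 Scores are visual injury ratings on a 0–100 scale (100 = complete control) taken about 10 d after treatment, relative to untreated greenhouse controls. Preemergence: directed soil spray over planted seeds in loam/sand; postemergence: spray onto one- to two-leaf plants 2–10 cm high; surfactant-containing solvent formulation.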

[2] = system: barnyardgrass (Echinochloa crus-galli); experiment: Test A postemergence barnyardgrass; conditions: 0 to 100 scale, 0 is no effect, 100 is complete control
Procedure, shortened: as §1

[3] = system: ragweed (common ragweed, Ambrosia elatior); experiment: Test A postemergence ragweed; conditions: 0 to 100 scale, 0 is no effect, 100 is complete control
Procedure, shortened: as §1

[4] = system: foxtail, giant (giant foxtail, Setaria faberii); experiment: Test A postemergence foxtail, giant; conditions: 0 to 100 scale, 0 is no effect, 100 is complete control
Procedure, shortened: as §1

[5] = system: ragweed (common ragweed, Ambrosia elatior); experiment: Test A preemergence ragweed; conditions: 0 to 100 scale, 0 no effect, 100 complete control
Procedure, shortened: as §1

[6] = system: kochia (Kochia scoparia); experiment: Test A postemergence kochia; conditions: 0 to 100 scale, 0 is no effect, 100 is complete control
Procedure, shortened: as §1

[7] = system: sedge, umbrella (small-flower umbrella sedge, Cyperus difformis); experiment: Test C flooded paddy test sedge, umbrella; conditions: Table C, Flood, scale 0 to 100
Text: (§2) Plant species in the flooded paddy test consisted of rice (Oryza sativa), sedge, umbrella (small-flower umbrella sedge, Cyperus difformis), ducksalad (Heteranthera limosa), and barnyardgrass (Echinochloa crus-galli) grown to the 2-leaf stage for testing. At time of treatment, test pots were flooded to 3 cm above the soil surface, treated by application of test compounds directly to the paddy water, and then maintained at that water depth for the duration of the test. Treated plants and controls were maintained in a greenhouse for 13 to 15 d, after which time all species were compared to controls and visually evaluated. Plant response ratings, summarized in Table C, are based on a scale of 0 to 100 where 0 is no effect and 100 is complete control. A dash (-) response means no test result.

[8] = system: barnyardgrass (Echinochloa crus-galli); experiment: Test A preemergence barnyardgrass; conditions: 0 to 100 scale; for Barnyardgrass plant response rating: 0 no effect, 100 complete control
Procedure, shortened: as §1

[9] = system: pigweed (Amaranthus retroflexus); experiment: Test A preemergence pigweed; conditions: 0 to 100 scale, 0 no effect, 100 complete control
Procedure, shortened: as §1

[10] = system: wheat (Triticum aestivum); experiment: Test A postemergence wheat; conditions: 0 to 100 scale, 0 is no effect, 100 is complete control
Procedure, shortened: as §1

[11] = system: corn (Zea mays); experiment: Test A postemergence corn; conditions: 0 to 100 scale, 0 is no effect, 100 is complete control
Procedure, shortened: as §1

[12] = system: foxtail, giant (giant foxtail, Setaria faberii); experiment: Test A preemergence foxtail, giant; conditions: 0 to 100 scale, 0 no effect, 100 complete control
Procedure, shortened: as §1

[13] = system: kochia (Kochia scoparia); experiment: Test A preemergence kochia; conditions: 0 to 100 scale, 0 no effect, 100 complete control
Procedure, shortened: as §1

[14] = system: pigweed (Amaranthus retroflexus); experiment: Test A postemergence pigweed; conditions: 0 to 100 scale, 0 is no effect, 100 is complete control
Procedure, shortened: as §1

[15] = system: barnyardgrass (Echinochloa crus-galli); experiment: Test C flooded paddy test barnyardgrass; conditions: Table C, Flood, scale 0 to 100
Text: as §2

[16] = system: blackgrass (Alopecurus myosuroides); experiment: Test A postemergence blackgrass; conditions: 0 to 100 scale, 0 is no effect, 100 is complete control
Procedure, shortened: as §1

[17] = system: ryegrass, Italian (Italian ryegrass, Lolium multiflorum); experiment: Test A postemergence ryegrass, Italian; conditions: 0 to 100 scale, 0 is no effect, 100 is complete control
Procedure, shortened: as §1

[18] = system: rice (Oryza sativa); experiment: Test C flooded paddy test rice; conditions: Table C, Flood, scale 0 to 100
Text: as §2

[19] = system: ducksalad (Heteranthera limosa); experiment: Test C flooded paddy test ducksalad; conditions: Table C, Flood, scale 0 to 100
Text: as §2

[20] = system: ryegrass, Italian (Italian ryegrass, Lolium multiflorum); experiment: Test A preemergence ryegrass, Italian; conditions: 0 to 100 scale, 0 no effect, 100 complete control
Procedure, shortened: as §1

[21] = system: ducksalad (Heteranthera limosa); experiment: Test B flooded paddy test ducksalad; conditions: Table B, Flood, 250 g ai/ha, scale 0 to 100
Procedure, shortened: (§3)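 Plants grown to the 2-leaf stage; pots flooded to 3 cm above soil at treatment, compound applied directly into paddy water, depth held throughout. Greenhouse 13 to 15 d, then visual evaluation against untreated controls.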

[22] = system: barnyardgrass (Echinochloa crus-galli); experiment: Test B flooded paddy test barnyardgrass; conditions: Table B, Flood, 250 g ai/ha, scale 0 to 100
Procedure, shortened: as §3

[23] = system: sedge, umbrella (small-flower umbrella sedge, Cyperus difformis); experiment: Test B flooded paddy test sedge, umbrella; conditions: Table B, Flood, 250 g ai/ha, scale 0 to 100
Procedure, shortened: as §3

[24] = system: rice (Oryza sativa); experiment: Test B flooded paddy test rice; conditions: Table B, Flood, 250 g ai/ha, scale 0 to 100
Procedure, shortened: as §3

O=C1NCCC(c2ccc(C(F)(F)F)cc2)C1C(=O)Nc1ccccc1C(F)(F)F (racemic) [Compound 12]
75: Plant response rating ([19]; 500 g ai/ha)
15: Plant response rating ([15]; 250 g ai/ha)
25: Plant response rating ([7]; 1000 g ai/ha) | Plant response rating ([15]; 1000 g ai/ha)
20: Plant response rating, Barnyardgrass ([2]; 125 g ai/ha) | Plant response rating, Foxtail, Giant ([4]; 125 g ai/ha) | Barnyardgrass plant response rating ([8]; 125 g ai/ha) | Foxtail, Giant plant response rating ([12]; 125 g ai/ha) | Plant response rating ([15]; 500 g ai/ha)
70: Plant response rating, Barnyardgrass ([8]; 500 g ai/ha, 0 is no effect, 100 is complete control) | Foxtail, Giant plant response rating ([12]; 500 g ai/ha)
10: Plant response rating ([7]; 500 g ai/ha)
0: Plant response rating, Galium ([1]; 125 g ai/ha) | Plant response rating, Galium ([1]; 500 g ai/ha) | Plant response rating, Ragweed ([3]; 125 g ai/ha) | Plant response rating, Ragweed ([3]; 500 g ai/ha) | Ragweed plant response rating ([5]; 125 g ai/ha) | Ragweed plant response rating ([5]; 500 g ai/ha) | Plant response rating, Kochia ([6]; 125 g ai/ha) | Plant response rating, Kochia ([6]; 500 g ai/ha) | Plant response rating ([7]; 125 g ai/ha) | Plant response rating ([7]; 250 g ai/ha) | Pigweed plant response rating ([9]; 125 g ai/ha) | Pigweed plant response rating ([9]; 500 g ai/ha) | Plant response rating, Wheat ([10]; 125 g ai/ha) | Plant response rating, Wheat ([10]; 500 g ai/ha) | Plant response rating, Corn ([11]; 125 g ai/ha) | Plant response rating, Corn ([11]; 500 g ai/ha) | Kochia plant response rating ([13]; 125 g ai/ha) | Kochia plant response rating ([13]; 500 g ai/ha) | Plant response rating, Pigweed ([14]; 125 g ai/ha) | Plant response rating, Pigweed ([14]; 500 g ai/ha) | Plant response rating ([15]; 125 g ai/ha) | Plant response rating, Blackgrass ([16]; 125 g ai/ha) | Plant response rating, Blackgrass ([16]; 500 g ai/ha) | Plant response rating, Ryegrass, Italian ([17]; 125 g ai/ha) | Plant response rating, Ryegrass, Italian ([17]; 500 g ai/ha) | Plant response rating ([18]; 125 g ai/ha) | Plant response rating ([18]; 250 g ai/ha) | Plant response rating ([18]; 500 g ai/ha) | Plant response rating ([18]; 1000 g ai/ha) | Plant response rating ([19]; 125 g ai/ha) | Ryegrass, Italian plant response rating ([20]; 125 g ai/ha) | Ryegrass, Italian plant response rating ([20]; 500 g ai/ha)
35: Plant response rating ([19]; 250 g ai/ha)
100: Plant response rating ([19]; 1000 g ai/ha)
60: Plant response rating, Barnyardgrass ([2]; 500 g ai/ha) | Plant response rating, Foxtail, Giant ([4]; 500 g ai/ha)

O=C1NCC[C@@H](c2ccc(C(F)(F)F)cc2)[C@@H]1C(=O)Nc1cccc(F)c1F [Compound 23]
10: Plant response rating, Blackgrass ([16]; 500 g ai/ha)
70: Plant response rating, Barnyardgrass ([2]; 500 g ai/ha) | Barnyardgrass plant response rating ([8]; 500 g ai/ha)
20: Plant response rating, Galium ([1]; 500 g ai/ha) | Plant response rating, Barnyardgrass ([2]; 125 g ai/ha) | Plant response rating, Foxtail, Giant ([4]; 125 g ai/ha) | Plant response rating, Kochia ([6]; 125 g ai/ha) | Plant response rating, Wheat ([10]; 500 g ai/ha) | Plant response rating, Corn ([11]; 500 g ai/ha) | Plant response rating, Ryegrass, Italian ([17]; 500 g ai/ha) | Ryegrass, Italian plant response rating ([20]; 500 g ai/ha)
80: Foxtail, Giant plant response rating ([12]; 500 g ai/ha)
50: Plant response rating, Kochia ([6]; 500 g ai/ha)
30: Barnyardgrass plant response rating ([8]; 125 g ai/ha) | Foxtail, Giant plant response rating ([12]; 125 g ai/ha)
40: Kochia plant response rating ([13]; 500 g ai/ha)
60: Plant response rating, Foxtail, Giant ([4]; 500 g ai/ha) | Ragweed plant response rating ([5]; 500 g ai/ha)
0: Plant response rating, Galium ([1]; 125 g ai/ha) | Plant response rating [21] | Plant response rating, Ragweed ([3]; 125 g ai/ha) | Plant response rating, Ragweed ([3]; 500 g ai/ha) | Plant response rating [22] | Plant response rating [23] | Ragweed plant response rating ([5]; 125 g ai/ha) | Pigweed plant response rating ([9]; 125 g ai/ha) | Pigweed plant response rating ([9]; 500 g ai/ha) | Plant response rating, Wheat ([10]; 125 g ai/ha) | Plant response rating, Corn ([11]; 125 g ai/ha) | Kochia plant response rating ([13]; 125 g ai/ha) | Plant response rating, Pigweed ([14]; 125 g ai/ha) | Plant response rating, Pigweed ([14]; 500 g ai/ha) | Plant response rating, Blackgrass ([16]; 125 g ai/ha) | Plant response rating [24] | Plant response rating, Ryegrass, Italian ([17]; 125 g ai/ha) | Ryegrass, Italian plant response rating ([20]; 125 g ai/ha)
